Laboratory results reported in ChEMBL document CHEMBL1201862, “PubChem BioAssay data set” (2004).
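Cells were grown in 96-well plates and exposed to each compound for 48 hours at five concentrations; endpoints were interpolated linearly between bracketing concentrations, or set to the highest concentration if not reached. Abbreviation: GI50, concentration required for 50% inhibition of growth.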 Active and inactive are the calls of the source. Cut-off read from the data, not from the text of the source: active = GI50 up to about 1.1 µM and inactive = higher.

How the values were obtained:
Assay in all cases: growth of human tumour cells (NCI), 48 h
SF-295 = tested on: SF-295
IGROV-1 = tested on: IGROV-1
RPMI-8226 = tested on: RPMI-8226
HCT-15 = tested on: HCT-15
SR = tested on: SR
UACC-257 = tested on: UACC-257
SF-539 = tested on: SF-539
SN12C = tested on: SN12C
NCI-H23 = tested on: NCI-H23
UACC-62 = tested on: UACC-62
NCI-H522 = tested on: NCI-H522
CAKI-1 = tested on: CAKI-1
Malme-3M = tested on: Malme-3M
NCI-H460 = tested on: NCI-H460
A498 = tested on: A498
OVCAR-5 = tested on: OVCAR-5
HL-60 = tested on: HL-60
LOX IMVI = tested on: LOX IMVI
HOP-62 = tested on: HOP-62
HT-29 = tested on: HT-29

| Structure (SMILES) | GI50 (SF-295) | GI50 (IGROV-1) | GI50 (RPMI-8226) | GI50 (HCT-15) [µM] | GI50 (SR) | GI50 (UACC-257) | GI50 (SF-539) | GI50 (SN12C) | GI50 (NCI-H23) | GI50 (UACC-62) | GI50 (NCI-H522) | GI50 (CAKI-1) | GI50 (Malme-3M) | GI50 (NCI-H460) | GI50 (A498) | GI50 (OVCAR-5) | GI50 (HL-60) | GI50 (LOX IMVI) | GI50 (HOP-62) | GI50 (HT-29) |
| --- | --- | --- | --- | --- | --- | --- | --- | --- | --- | --- | --- | --- | --- | --- | --- | --- | --- | --- | --- | --- |
| CSS(C)(=O)=O | 23.1 µM (inactive) | 23.2 µM (inactive) | 1.95 µM (inactive) | 24.9 | 15.3 µM (inactive) | 23.9 µM (inactive) | 20.4 µM (inactive) | 21.5 µM (inactive) | 19.9 µM (inactive) | 19.4 µM (inactive) | 18.2 µM (inactive) | 22.8 µM (inactive) | 26.9 µM (inactive) | > 100 µM (inactive) | > 100 µM (inactive) | 17.5 µM (inactive) | 24.9 µM (inactive) | 60.1 µM (inactive) | 44.2 µM (inactive) | 31 µM (inactive) |
| CSC1(SC2=NCCN2)SC2(NCCN2)S1 | 27.8 µM (inactive) | 18.6 µM (inactive) | 2.77 µM (inactive) | 17.7 | 5.7 µM (inactive) | 20.6 µM (inactive) | 16.7 µM (inactive) | 20.7 µM (inactive) | 16.3 µM (inactive) | 16.9 µM (inactive) | 11.8 µM (inactive) | 13.6 µM (inactive) | 17.6 µM (inactive) | 20.5 µM (inactive) | 12.6 µM (inactive) | 19.5 µM (inactive) | 21 µM (inactive) | 10.5 µM (inactive) | 17.5 µM (inactive) | 18.7 µM (inactive) |
| NC(=O)c1cc([N+](=O)[O-])cc([N+](=O)[O-])c1 [NITROMIDE] | > 100 µM (inactive) | > 100 µM (inactive) | > 100 µM (inactive) | > 100 | > 100 µM (inactive) | > 100 µM (inactive) | > 100 µM (inactive) | > 100 µM (inactive) | > 100 µM (inactive) | 96.8 µM (inactive) | > 100 µM (inactive) | > 100 µM (inactive) | 69.3 µM (inactive) | > 100 µM (inactive) | > 100 µM (inactive) | > 100 µM (inactive) | 40.9 µM (inactive) | > 100 µM (inactive) | > 100 µM (inactive) | > 100 µM (inactive) |
| O=[N+]([O-])c1ccc(C(Cl)C(Cl)c2ccc(C(Cl)C(Cl)c3ccc([N+](=O)[O-])cc3[N+](=O)[O-])cc2)c([N+](=O)[O-])c1 (stereo not given) | 2.31 µM (inactive) | 2.05 µM (inactive) | 0.8 µM (active) | 1.19 | 2.23 µM (inactive) | 1.72 µM (inactive) | 1.67 µM (inactive) | 1.95 µM (inactive) | 1.52 µM (inactive) | 1.16 µM (inactive) | 1.14 µM (inactive) | 1.67 µM (inactive) | 1.27 µM (inactive) | 0.957 µM (active) | 2.9 µM (inactive) | 1.86 µM (inactive) | 1.93 µM (inactive) | 1.36 µM (inactive) | 3.01 µM (inactive) | 1.76 µM (inactive) |
| C=CC(C)CCC(C/C=C(\C)CCCC(C)C)C(=C)CCCC(C)C (stereo not given) | > 100 µM (inactive) | > 100 µM (inactive) | > 100 µM (inactive) | > 100 | > 100 µM (inactive) | > 100 µM (inactive) | > 100 µM (inactive) | > 100 µM (inactive) | > 100 µM (inactive) | > 100 µM (inactive) | > 100 µM (inactive) | > 100 µM (inactive) | > 100 µM (inactive) | > 100 µM (inactive) | > 100 µM (inactive) | > 100 µM (inactive) | > 100 µM (inactive) | > 100 µM (inactive) | > 100 µM (inactive) | – |
| C/C(=N/NC(=S)Nc1ccc([N+](=O)[O-])cc1)c1cccc(/C(C)=N\NC(=S)Nc2ccc([N+](=O)[O-])cc2)n1 | 0.564 µM (active) | 0.569 µM (active) | 0.491 µM (active) | 0.125 | 0.216 µM (active) | 1.09 µM (active) | 0.458 µM (active) | 0.671 µM (active) | 0.877 µM (active) | 0.493 µM (active) | 0.628 µM (active) | 0.631 µM (active) | 0.515 µM (active) | 0.34 µM (active) | 1.09 µM (active) | 2.29 µM (inactive) | 0.265 µM (active) | 0.313 µM (active) | 0.752 µM (active) | 0.628 µM (active) |
| Cc1ccc2c(c1)C(=O)C1(C2)Cc2ccc(C)cc2C1=O | > 100 µM (inactive) | > 100 µM (inactive) | > 100 µM (inactive) | > 100 | > 100 µM (inactive) | > 100 µM (inactive) | > 100 µM (inactive) | – | > 100 µM (inactive) | – | > 100 µM (inactive) | > 100 µM (inactive) | > 100 µM (inactive) | > 100 µM (inactive) | > 100 µM (inactive) | > 100 µM (inactive) | > 100 µM (inactive) | > 100 µM (inactive) | > 100 µM (inactive) | > 100 µM (inactive) |
| COc1cc(OC)cc(Oc2nc3ccc(C(F)(F)F)cc3nc2-c2ccccc2)c1 | > 100 µM (inactive) | > 100 µM (inactive) | 52.5 µM (inactive) | > 100 | > 100 µM (inactive) | > 100 µM (inactive) | > 100 µM (inactive) | – | > 100 µM (inactive) | > 100 µM (inactive) | > 100 µM (inactive) | > 100 µM (inactive) | > 100 µM (inactive) | > 100 µM (inactive) | > 100 µM (inactive) | > 100 µM (inactive) | > 100 µM (inactive) | > 100 µM (inactive) | > 100 µM (inactive) | 60 µM (inactive) |
| COC(=O)[C@]1(C)CCC[C@@]2(C)C1CCC1=CC3(C(C)C)CCC12OO3 (stereo not given in full) | 46.5 µM (inactive) | > 100 µM (inactive) | 43.1 µM (inactive) | 40 | 27.9 µM (inactive) | 31.5 µM (inactive) | > 100 µM (inactive) | 43.2 µM (inactive) | 77.1 µM (inactive) | 57 µM (inactive) | 40.5 µM (inactive) | 80.5 µM (inactive) | 36.2 µM (inactive) | 58.6 µM (inactive) | 18.7 µM (inactive) | > 100 µM (inactive) | 15.9 µM (inactive) | 81.1 µM (inactive) | > 100 µM (inactive) | 34.4 µM (inactive) |
| Clc1cc2ns[s+]c2cc1Cl | 47.1 µM (inactive) | 98.6 µM (inactive) | 31 µM (inactive) | 4.34 | 23.2 µM (inactive) | > 86.3 µM (inactive) | 36.6 µM (inactive) | 58.9 µM (inactive) | 73.8 µM (inactive) | 5.33 µM (inactive) | 27.6 µM (inactive) | 18.9 µM (inactive) | > 100 µM (inactive) | 47.8 µM (inactive) | > 100 µM (inactive) | > 62.7 µM (inactive) | 19.3 µM (inactive) | 9.48 µM (inactive) | 31.8 µM (inactive) | 29.3 µM (inactive) |
| COC(=O)C(=O)Nc1cc2c3c(c1)Oc1cccc4c1C3(C)c1c(cccc1O2)O4 | > 100 µM (inactive) | 55.8 µM (inactive) | > 44.8 µM (inactive) | 97.5 | 2.93 µM (inactive) | > 100 µM (inactive) | 33 µM (inactive) | > 69.5 µM (inactive) | > 100 µM (inactive) | > 100 µM (inactive) | > 86.3 µM (inactive) | > 72.4 µM (inactive) | > 65.9 µM (inactive) | > 100 µM (inactive) | 39.7 µM (inactive) | > 55.2 µM (inactive) | 0.105 µM (active) | 71.3 µM (inactive) | > 100 µM (inactive) | – |
| COc1cc2c(c(OC)c1OC)-c1ccc(SC)c(=O)cc1C(CC(=O)Oc1ccccc1F)C2 (stereo not given) | < 0.0075 µM (active) | 0.164 µM (active) | < 0.0075 µM (active) | 0.0122 | < 0.0075 µM (active) | – | < 0.0075 µM (active) | 0.0193 µM (active) | 0.0219 µM (active) | < 0.0075 µM (active) | 0.0108 µM (active) | 0.0172 µM (active) | 0.0575 µM (active) | 0.0103 µM (active) | 0.0269 µM (active) | 2.94 µM (inactive) | < 0.0075 µM (active) | < 0.0075 µM (active) | 0.0175 µM (active) | 0.00841 µM (active) |
| COc1ccc(/C=C/c2cc(O)cc(OC3OC(CO)C(O)C(O)C3O)c2)cc1O (stereo not given) | 51.8 µM (inactive) | 66.2 µM (inactive) | 78.7 µM (inactive) | 6.01 | > 100 µM (inactive) | > 100 µM (inactive) | 57.1 µM (inactive) | > 100 µM (inactive) | – | 19.4 µM (inactive) | 44 µM (inactive) | > 100 µM (inactive) | 67.1 µM (inactive) | > 100 µM (inactive) | > 100 µM (inactive) | 67.1 µM (inactive) | > 100 µM (inactive) | > 100 µM (inactive) | 37 µM (inactive) | > 100 µM (inactive) |
| COc1c(CCl)cc(-c2cc(=O)c3ccccc3s2)cc1CCl | 11.9 µM (inactive) | 2.51 µM (inactive) | 3.77 µM (inactive) | > 100 | 3.18 µM (inactive) | > 100 µM (inactive) | 6.55 µM (inactive) | > 100 µM (inactive) | 18.9 µM (inactive) | 4.99 µM (inactive) | 1.99 µM (inactive) | 7.62 µM (inactive) | 1.5 µM (inactive) | 22.9 µM (inactive) | 20.4 µM (inactive) | > 100 µM (inactive) | 2.59 µM (inactive) | 1.86 µM (inactive) | 10.6 µM (inactive) | – |
| CC(C)[C@H](CCl)NC(=O)c1cccc(C(=O)N[C@H](CCl)C(C)C)n1 (stereo in doubt) | > 100 µM (inactive) | > 100 µM (inactive) | > 100 µM (inactive) | > 100 | > 100 µM (inactive) | – | > 100 µM (inactive) | > 100 µM (inactive) | > 100 µM (inactive) | – | > 100 µM (inactive) | > 100 µM (inactive) | > 100 µM (inactive) | > 100 µM (inactive) | 78.7 µM (inactive) | > 100 µM (inactive) | > 100 µM (inactive) | > 100 µM (inactive) | > 100 µM (inactive) | > 100 µM (inactive) |
